Source: patent US5604214A, “Reduction of boar odor in meat” (Pfizer Inc., priority 1993, dated 1997)

Test system: boar salivary gland steroid 5-α-reductase (boar 4-ene-5-α-reductase enzyme)
Assay: Boar steroid 5α-reductase enzyme activity and inhibitor potency assay ([14C]testosterone conversion, boar salivary gland microsomes)
Type: biochemical
Conditions: 500 nM compound, 37° C., 30 minutes
Procedure: Microsomal preparations from boar salivary glands were prepared by the protocol desbribed by Liang, et al. for human prostatic microsomal 5-α-reductase.
Assay for enzyme activity and inhibitor potency.
A constant amount of [^14 C]testosterone (50 to 55 mCi/mmol) in ethanol and varying amounts of potential inhibitor (or no inhibitor i.e. control) in ethanol were deposited in test tubes and concentrated to dryness in vacuo. Assays for boar steroid 5α-reductase enzyme were conducted with a sample of the boar salivary gland 5-α-reductase in 50 mM phosphate buffer, pH 7.5 or in 50 mM citrate buffer at pH 5.0. To each tube was added buffer, 40 μl of microsomal preparation from boar salivary glands (hereinafter boar salivary gland steroid 5-α-reductase) and 20 μl of 20 mM NADPH to a final volume of 0.5 mL.
After incubating the solution at 37° C. for 30 minutes the reaction was quenched by the addition of 4 mL ethyl acetate and 0.25 μmol each of testosterone, 5α-dihydrotestosterone, androstanediol, and androstanedione as carriers. The organic layer was removed to a second test tube and evaporated to dryness in a Speed Vac. The residue was dissolved in 40 μL chloroform, spotted on an individual lane of a 20×20 cm prechannelled silica gel TLC plate (Si 250F-PA, Baker Chemical) and developed twice with acetone:chloroform (1:9). The radiochemical content in the bands of the substrate and the products was determined with a BIOSCAN Imaging Scanner (Bioscan Inc., Washington, D.C.). The percent of recovered radiolabel converted to product was calculated, from which enzyme activity was determined. All incubations were conducted such that no more than 20% of the substrate (testosterone) was consumed.
By following the above procedure in the absence of an inhibitor (i.e. control) a significant formation of 5-α-dihydrotestosterone, and the androstanediols occurred which indicated the presence of a high level of 4-ene-5-α-reductase enzyme activity in the microsomes prepared from the salivary glands of the boar.

[1] = pH 7.5 (50 mM phosphate buffer)

With CC(C)(C)NC(=O)[C@H]1CC[C@H]2[C@@H]3CC[C@H]4NC(=O)C=C[C@]4(C)[C@H]3CC[C@]12C [17β-(N-t-butylcarbamoyl)-4-aza-5α-androst-1-en-3-one] as the molecule, how does the “inhibition of the boar 5-α-reductase enzyme (vs. control)” value [1] read?
The value was 50%.

How did the “inhibition of the boar 5-α-reductase enzyme (vs. control)” value [1] turn out when CC(C)(C)NC(=O)[C@H]1CC[C@H]2[C@@H]3CC=C4C=C(C(=O)O)CC[C@]4(C)[C@H]3CC[C@]12C [17β-(N-t-butylcarboxamide)-androst-3,5-diene-3-carboxylic acid] was run?
The value was 50%.

How did the “inhibition of the boar 5-α-reductase enzyme (vs. control)” value (pH 5 (50 mM citrate buffer)) turn out when CC(C)(C)NC(=O)[C@H]1CC[C@H]2[C@@H]3CCc4cc(C(=O)O)ccc4[C@H]3CC[C@]12C [17β-(N-t-butylcarboxamide)-estr-1,3,5(10)triene-3-carboxylic acid] was run?
The value was ~65%.

And the “inhibition of the boar 5-α-reductase enzyme (vs. control)” value [1]?
Its value is 80%.
